What all share (assay): Z'-LYTE kinase panel
Assay type in all cases: biochemical

The target in experiment [1] is T1, AKT1 (PKB alpha) (Homo sapiens, UniProt P31749).
T1 construct: purchased ThermoFisher (SelectScreen, Z'-LYTE)
The method in brief: (§1)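 Standard Z′-LYTE protocol applied. Compound fixed at 10 µM. Output: % inhibition. Panel size 225 kinases.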

The target in experiment [2] is T2, MAP4K2 (GCK) (Homo sapiens, UniProt Q12851).
T2 construct: purchased ThermoFisher (SelectScreen, Z'-LYTE)
T2 sequence (Q12851 1-820): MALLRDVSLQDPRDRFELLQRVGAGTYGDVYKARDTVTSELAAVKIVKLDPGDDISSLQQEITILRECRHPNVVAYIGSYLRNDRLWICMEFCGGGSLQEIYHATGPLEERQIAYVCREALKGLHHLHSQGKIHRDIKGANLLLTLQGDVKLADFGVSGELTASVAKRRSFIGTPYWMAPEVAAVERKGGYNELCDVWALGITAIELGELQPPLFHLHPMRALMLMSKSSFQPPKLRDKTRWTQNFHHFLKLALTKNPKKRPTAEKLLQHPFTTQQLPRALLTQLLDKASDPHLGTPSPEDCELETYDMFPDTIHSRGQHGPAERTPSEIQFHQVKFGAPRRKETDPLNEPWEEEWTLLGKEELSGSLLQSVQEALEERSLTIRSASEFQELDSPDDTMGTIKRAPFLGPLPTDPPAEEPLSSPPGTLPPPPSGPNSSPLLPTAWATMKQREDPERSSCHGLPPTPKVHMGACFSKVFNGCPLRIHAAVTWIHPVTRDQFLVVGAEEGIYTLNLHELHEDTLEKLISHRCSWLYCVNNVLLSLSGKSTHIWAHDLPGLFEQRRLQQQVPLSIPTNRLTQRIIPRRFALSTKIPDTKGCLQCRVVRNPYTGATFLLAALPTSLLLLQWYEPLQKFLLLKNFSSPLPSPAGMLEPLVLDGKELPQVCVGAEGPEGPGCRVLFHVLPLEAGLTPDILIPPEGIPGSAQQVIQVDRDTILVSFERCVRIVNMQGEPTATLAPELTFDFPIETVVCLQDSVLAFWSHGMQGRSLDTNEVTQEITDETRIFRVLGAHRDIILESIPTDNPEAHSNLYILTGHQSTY
In a few lines:
as §1

The target in experiment [3] is T3, MINK1 (Homo sapiens, UniProt Q8N4C8).
T3 construct: purchased ThermoFisher (SelectScreen, Z'-LYTE)
The method in brief: as §1

The target of experiment [4] is T4, CSNK1G1 (CK1 gamma 1) (Homo sapiens, UniProt Q9HCP0).
T4 construct: purchased ThermoFisher (SelectScreen, Z'-LYTE)
T4 sequence (Q9HCP0 whole entry): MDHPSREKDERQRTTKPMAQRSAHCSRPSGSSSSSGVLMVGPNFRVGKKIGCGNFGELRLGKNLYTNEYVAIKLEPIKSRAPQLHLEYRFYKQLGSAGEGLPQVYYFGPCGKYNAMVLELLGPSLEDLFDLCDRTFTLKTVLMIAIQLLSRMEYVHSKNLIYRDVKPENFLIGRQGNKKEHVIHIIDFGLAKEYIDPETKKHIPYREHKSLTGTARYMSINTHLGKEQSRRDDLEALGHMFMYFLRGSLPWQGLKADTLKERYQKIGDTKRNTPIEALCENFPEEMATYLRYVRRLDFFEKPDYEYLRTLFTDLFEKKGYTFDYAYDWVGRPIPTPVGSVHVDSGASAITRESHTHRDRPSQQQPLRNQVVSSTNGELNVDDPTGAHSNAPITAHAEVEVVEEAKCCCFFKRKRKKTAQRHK
The method in brief: as §1

In experiment [5] the target is T5, PLK2 (Homo sapiens, UniProt Q9NYY3).
T5 construct: purchased ThermoFisher (SelectScreen, Z'-LYTE)
T5 sequence (Q9NYY3 whole entry): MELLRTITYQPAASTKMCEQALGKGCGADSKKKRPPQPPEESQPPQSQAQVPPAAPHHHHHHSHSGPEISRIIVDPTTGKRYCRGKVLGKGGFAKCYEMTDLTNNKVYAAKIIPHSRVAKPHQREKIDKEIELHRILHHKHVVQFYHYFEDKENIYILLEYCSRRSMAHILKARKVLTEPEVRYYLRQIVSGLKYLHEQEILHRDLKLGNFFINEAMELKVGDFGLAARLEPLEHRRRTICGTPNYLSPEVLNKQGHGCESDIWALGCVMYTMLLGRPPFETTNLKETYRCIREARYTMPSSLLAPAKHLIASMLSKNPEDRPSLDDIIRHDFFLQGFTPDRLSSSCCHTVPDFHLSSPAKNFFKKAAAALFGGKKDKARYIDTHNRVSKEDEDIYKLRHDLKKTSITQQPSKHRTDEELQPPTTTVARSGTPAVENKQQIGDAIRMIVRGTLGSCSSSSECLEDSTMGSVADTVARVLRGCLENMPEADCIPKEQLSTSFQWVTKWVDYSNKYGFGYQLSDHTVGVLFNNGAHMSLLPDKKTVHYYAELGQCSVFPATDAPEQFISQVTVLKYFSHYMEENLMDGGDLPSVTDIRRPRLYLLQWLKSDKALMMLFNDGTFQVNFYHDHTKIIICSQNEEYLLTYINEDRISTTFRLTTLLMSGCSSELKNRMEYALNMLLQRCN
The method in brief:
as §1

The target in experiment [6] is T6, STK23 (MSSK1) (Homo sapiens, UniProt Q9UPE1).
T6 construct: purchased ThermoFisher (SelectScreen, Z'-LYTE)
In a few lines:
as §1

For experiment [7], the target named is T7, MAPKAPK5 (PRAK) (Homo sapiens, UniProt Q8IW41).
T7 construct: purchased ThermoFisher (SelectScreen, Z'-LYTE)
T7 sequence (Q8IW41 1-473): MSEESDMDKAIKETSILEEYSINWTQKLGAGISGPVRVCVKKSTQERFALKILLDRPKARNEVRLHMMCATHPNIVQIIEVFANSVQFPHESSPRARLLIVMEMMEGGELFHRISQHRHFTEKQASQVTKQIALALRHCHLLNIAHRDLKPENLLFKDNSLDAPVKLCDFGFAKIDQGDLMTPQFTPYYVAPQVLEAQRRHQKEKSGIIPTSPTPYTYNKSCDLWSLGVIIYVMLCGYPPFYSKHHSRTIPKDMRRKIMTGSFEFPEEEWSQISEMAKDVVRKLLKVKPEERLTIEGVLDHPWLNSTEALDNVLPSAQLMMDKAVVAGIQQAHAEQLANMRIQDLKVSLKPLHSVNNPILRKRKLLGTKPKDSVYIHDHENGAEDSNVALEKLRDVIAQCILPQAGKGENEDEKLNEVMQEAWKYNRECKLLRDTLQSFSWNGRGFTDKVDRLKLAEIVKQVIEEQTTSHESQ
The method in brief:
as §1

Experiment [8] deals with T8, CDC42 BPB (MRCKB) (Homo sapiens, UniProt Q9Y5S2).
T8 construct: purchased ThermoFisher (SelectScreen, Z'-LYTE)
T8 sequence (Q9Y5S2 whole entry): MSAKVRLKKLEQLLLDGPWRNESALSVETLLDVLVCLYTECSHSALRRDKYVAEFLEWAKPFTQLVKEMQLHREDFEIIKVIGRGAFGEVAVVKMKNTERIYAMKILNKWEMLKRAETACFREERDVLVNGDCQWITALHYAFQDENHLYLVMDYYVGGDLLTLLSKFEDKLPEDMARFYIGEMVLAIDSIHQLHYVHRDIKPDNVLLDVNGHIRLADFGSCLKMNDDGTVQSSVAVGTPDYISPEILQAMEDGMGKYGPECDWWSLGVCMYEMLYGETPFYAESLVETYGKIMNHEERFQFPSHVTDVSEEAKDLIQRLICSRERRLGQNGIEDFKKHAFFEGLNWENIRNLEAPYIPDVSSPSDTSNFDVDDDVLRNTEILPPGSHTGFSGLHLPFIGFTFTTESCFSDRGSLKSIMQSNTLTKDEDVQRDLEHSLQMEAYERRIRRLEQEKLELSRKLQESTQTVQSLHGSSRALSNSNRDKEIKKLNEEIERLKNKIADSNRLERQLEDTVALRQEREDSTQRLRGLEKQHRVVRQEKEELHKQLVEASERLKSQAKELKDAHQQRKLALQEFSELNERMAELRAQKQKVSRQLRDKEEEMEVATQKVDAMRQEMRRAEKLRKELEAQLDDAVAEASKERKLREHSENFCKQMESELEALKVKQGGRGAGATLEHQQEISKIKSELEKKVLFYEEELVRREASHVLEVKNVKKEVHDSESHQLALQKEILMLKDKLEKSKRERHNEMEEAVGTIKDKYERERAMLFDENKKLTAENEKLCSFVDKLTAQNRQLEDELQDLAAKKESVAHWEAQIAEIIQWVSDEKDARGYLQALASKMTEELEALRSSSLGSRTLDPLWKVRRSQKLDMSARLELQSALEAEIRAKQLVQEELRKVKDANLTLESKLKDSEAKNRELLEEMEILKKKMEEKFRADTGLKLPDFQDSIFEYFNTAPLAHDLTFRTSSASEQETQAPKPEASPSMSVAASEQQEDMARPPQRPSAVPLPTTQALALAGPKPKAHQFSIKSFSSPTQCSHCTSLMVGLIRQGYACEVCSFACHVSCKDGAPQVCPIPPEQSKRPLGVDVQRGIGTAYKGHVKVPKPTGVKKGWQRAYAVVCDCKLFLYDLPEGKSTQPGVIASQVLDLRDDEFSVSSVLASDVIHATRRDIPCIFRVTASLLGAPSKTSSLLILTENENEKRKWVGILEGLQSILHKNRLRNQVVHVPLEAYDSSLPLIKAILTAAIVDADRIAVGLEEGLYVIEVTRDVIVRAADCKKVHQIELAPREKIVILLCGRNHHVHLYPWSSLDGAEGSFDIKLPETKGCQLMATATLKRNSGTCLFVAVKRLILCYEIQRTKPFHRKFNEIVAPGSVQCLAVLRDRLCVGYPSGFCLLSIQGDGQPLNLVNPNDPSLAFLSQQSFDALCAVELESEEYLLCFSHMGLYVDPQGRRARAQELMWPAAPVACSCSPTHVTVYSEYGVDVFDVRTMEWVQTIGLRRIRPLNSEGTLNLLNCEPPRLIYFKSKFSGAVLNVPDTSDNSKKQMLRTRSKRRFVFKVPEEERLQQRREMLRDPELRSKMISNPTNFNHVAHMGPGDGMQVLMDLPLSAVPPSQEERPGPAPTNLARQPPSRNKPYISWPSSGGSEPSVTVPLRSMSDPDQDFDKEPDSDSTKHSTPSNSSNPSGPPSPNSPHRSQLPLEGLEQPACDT
In a few lines: as §1

In experiment [9] the target is T9, JAK2 JH1 JH2 (Homo sapiens, UniProt O60674).
T9 construct: JAK2 JH1 JH2; purchased ThermoFisher (SelectScreen, Z'-LYTE)
T9 sequence (O60674 532-1132 limits assumed): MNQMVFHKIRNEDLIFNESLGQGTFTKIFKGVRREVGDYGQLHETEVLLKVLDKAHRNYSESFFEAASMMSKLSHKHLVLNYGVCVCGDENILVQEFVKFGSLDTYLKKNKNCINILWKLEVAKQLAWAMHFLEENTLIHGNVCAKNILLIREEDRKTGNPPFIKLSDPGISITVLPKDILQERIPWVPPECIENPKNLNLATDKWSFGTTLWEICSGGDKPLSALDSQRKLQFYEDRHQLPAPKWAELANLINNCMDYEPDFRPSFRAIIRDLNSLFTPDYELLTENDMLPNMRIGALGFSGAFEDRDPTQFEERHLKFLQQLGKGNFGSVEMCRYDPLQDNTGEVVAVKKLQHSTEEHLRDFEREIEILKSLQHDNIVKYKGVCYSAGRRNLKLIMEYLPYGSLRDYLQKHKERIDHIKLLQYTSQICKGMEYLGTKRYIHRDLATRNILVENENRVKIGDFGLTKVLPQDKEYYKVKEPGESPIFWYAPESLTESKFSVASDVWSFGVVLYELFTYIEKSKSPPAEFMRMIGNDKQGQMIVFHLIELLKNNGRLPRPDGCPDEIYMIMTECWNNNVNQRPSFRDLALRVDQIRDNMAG
The method in brief:
as §1

Experiment [10] has as its target T10, ROCK2 (Homo sapiens, UniProt O75116).
T10 construct: purchased ThermoFisher (SelectScreen, Z'-LYTE)
The method in brief:
as §1

For experiment [11], the target named is T11, AMPK A2/B1/G1 (Homo sapiens, UniProt P54646).
T11 construct: purchased ThermoFisher (SelectScreen, Z'-LYTE)
T11 sequence (P54646 whole entry): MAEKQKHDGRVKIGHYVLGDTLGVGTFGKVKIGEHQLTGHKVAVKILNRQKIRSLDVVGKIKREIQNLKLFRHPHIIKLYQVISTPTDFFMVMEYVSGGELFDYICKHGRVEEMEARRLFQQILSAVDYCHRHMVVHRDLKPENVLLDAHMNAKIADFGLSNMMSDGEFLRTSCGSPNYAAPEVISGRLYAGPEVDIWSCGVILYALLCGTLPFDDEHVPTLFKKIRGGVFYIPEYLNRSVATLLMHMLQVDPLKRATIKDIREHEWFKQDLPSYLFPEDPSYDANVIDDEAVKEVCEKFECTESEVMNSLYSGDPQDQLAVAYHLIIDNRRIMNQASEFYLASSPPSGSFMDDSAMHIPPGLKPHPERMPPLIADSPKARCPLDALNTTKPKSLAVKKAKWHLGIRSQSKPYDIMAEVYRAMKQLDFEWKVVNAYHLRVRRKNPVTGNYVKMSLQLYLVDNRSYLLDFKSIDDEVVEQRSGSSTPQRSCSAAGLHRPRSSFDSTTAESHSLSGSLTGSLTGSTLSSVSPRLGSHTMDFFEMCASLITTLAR
T11 sequence (Q9Y478 whole entry partner): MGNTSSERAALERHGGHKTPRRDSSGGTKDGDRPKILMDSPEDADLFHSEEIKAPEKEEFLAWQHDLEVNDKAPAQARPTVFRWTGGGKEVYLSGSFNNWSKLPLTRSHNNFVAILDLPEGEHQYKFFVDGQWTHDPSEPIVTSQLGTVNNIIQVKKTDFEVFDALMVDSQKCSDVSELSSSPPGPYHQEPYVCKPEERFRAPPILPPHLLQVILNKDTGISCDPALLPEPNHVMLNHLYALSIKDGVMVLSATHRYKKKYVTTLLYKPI
T11 sequence (P54619 whole entry partner): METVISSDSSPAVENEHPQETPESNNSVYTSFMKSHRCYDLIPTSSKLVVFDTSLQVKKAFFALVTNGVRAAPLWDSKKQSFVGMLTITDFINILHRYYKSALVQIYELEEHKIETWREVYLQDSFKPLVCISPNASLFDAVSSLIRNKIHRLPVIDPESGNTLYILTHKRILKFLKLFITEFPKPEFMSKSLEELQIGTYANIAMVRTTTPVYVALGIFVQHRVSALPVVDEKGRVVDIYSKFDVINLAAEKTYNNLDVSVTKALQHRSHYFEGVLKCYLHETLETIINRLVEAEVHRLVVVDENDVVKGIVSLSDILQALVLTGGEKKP
In a few lines: as §1

Experiment [12] concerns the target T12, AKT2 (PKB beta) (Homo sapiens, UniProt P31751).
T12 construct: purchased ThermoFisher (SelectScreen, Z'-LYTE)
The method in brief:
as §1

Experiment [13] deals with T13, CSNK1G3 (CK1 gamma 3) (Homo sapiens, UniProt Q9Y6M4).
T13 construct: purchased ThermoFisher (SelectScreen, Z'-LYTE)
In a few lines:
as §1

In experiment [14] the target is T14, PDK1 Direct (Homo sapiens, UniProt O15530).
T14 construct: purchased ThermoFisher (SelectScreen, Z'-LYTE)
T14 sequence (O15530 1-556): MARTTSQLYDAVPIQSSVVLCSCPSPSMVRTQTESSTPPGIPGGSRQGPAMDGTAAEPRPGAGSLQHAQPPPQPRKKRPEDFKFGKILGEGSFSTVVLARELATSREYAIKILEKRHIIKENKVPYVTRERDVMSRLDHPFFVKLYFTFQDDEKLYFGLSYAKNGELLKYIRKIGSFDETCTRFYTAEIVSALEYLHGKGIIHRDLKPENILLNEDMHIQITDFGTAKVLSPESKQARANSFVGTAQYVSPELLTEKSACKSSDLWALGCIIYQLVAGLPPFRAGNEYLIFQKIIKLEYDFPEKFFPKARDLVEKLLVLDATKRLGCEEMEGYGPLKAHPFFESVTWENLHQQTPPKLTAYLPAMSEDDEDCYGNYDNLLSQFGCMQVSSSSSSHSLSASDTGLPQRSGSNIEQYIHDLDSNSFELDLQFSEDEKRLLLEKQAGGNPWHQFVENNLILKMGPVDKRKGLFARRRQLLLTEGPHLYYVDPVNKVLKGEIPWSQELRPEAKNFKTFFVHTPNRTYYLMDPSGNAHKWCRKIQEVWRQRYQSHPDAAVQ
The method in brief:
as §1

The target of experiment [15] is T15, LYN B (Homo sapiens, UniProt P07948).
T15 construct: purchased ThermoFisher (SelectScreen, Z'-LYTE)
In a few lines:
as §1

The inhibition is the relative decrease from the control value, in per cent.

T1 sequence (P31749 whole entry): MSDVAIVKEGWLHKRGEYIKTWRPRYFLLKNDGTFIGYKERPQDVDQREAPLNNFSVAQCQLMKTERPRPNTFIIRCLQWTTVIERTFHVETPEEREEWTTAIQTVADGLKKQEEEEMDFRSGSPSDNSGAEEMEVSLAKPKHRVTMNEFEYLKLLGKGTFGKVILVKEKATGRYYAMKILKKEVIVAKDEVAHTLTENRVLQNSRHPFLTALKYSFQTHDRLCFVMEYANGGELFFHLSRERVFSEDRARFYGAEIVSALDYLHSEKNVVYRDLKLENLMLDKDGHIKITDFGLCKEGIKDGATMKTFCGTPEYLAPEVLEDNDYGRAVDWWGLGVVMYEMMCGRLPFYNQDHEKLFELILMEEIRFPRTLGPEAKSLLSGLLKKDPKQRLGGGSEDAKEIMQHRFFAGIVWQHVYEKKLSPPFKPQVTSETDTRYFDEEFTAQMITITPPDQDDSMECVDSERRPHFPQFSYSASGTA

On to `Cc1ncc(-c2nc(Nc3ccc(C(=O)NCCN4CCCCC4)cc3)ncc2F)n1C(C)C` [Compound 3], for which the inhibition at 10 µM in experiment [1] worked out at 19%; in experiment [2], 77%; in experiment [3], 88%; in experiment [4], 70%; in experiment [5], 48%; in experiment [6] it was 15%. For the same molecule, the inhibition at 10 µM came out at 45% in experiment [7]; 8% in experiment [8]; 76% in experiment [9]; 40% in [10]; 94% in experiment [11]; 7% in experiment [12]. The inhibition at 10 µM in experiment [13] amounted to 89%; in experiment [14], 89%; in experiment [15] it was 91%.
Turning to `Cc1cc(Nc2nc(N)nn2C(=O)NC(C)C)ccc1Cl` [Compound 5], the inhibition at 10 µM was 0.31% in experiment [1]; 50% in experiment [2]; 21% in experiment [3]; 8% in [4]; 63% in experiment [5]; -2.48% in experiment [6]. Also, the inhibition at 10 µM in [7] is -3.49%; in [8], 5.45%; in experiment [9], 25%; in [10], 37%; in experiment [11] it was 29%; in experiment [12], -0.29%. Besides, the inhibition at 10 µM in [13] was 17%; in experiment [14], -1.67%; in experiment [15], 35%.
As to “XMD8-92 [Compound 2, reference compound]”, in experiment [1] (10 µM compound, ATP Km app), the “AKT1 (PKB alpha) % Inhibition” value is reported as 41%. In addition, in [2] (10 µM compound, ATP Km app), the “MAP4K2 (GCK) % Inhibition” value stood at 46%. Also, the “MINK1 % Inhibition” value in experiment [3] (10 µM compound, ATP Km app) stood at 66%. In experiment [4] (10 µM compound, ATP Km app), the “CSNK1G1 (CK1 gamma 1) % Inhibition” value turned out to be 24%. Moreover, the “PLK2 % Inhibition” value in experiment [5] (10 µM compound, ATP Km app) came to 12%. For the same molecule, the “STK23 (MSSK1) % Inhibition” value in [6] (10 µM compound, ATP Km app) worked out at 15%. In addition, the “MAPKAPK5 (PRAK) % Inhibition” value in experiment [7] (10 µM compound, ATP Km app) is recorded as 11%. In experiment [8] (10 µM compound, ATP Km app), the “CDC42 BPB (MRCKB) % Inhibition” value is given as -11%. Moreover, the “JAK2 JH1 JH2 % Inhibition” value in [9] (10 µM compound, ATP Km app) came to 52%. For the same molecule, in [10] (10 µM compound, ATP Km app), the “ROCK2 % Inhibition” value was 93%. Besides, the “AMPK A2/B1/G1 % Inhibition” value in experiment [11] (10 µM compound, ATP Km app) was found to be 58%. Also, the “AKT2 (PKB beta) % Inhibition” value in experiment [12] (10 µM compound, ATP Km app) is listed as 98%. In experiment [13] (10 µM compound, ATP Km app), the “CSNK1G3 (CK1 gamma 3) % Inhibition” value is on record as 31%. Also, in [14] (10 µM compound, ATP Km app), the “PDK1 Direct % Inhibition” value is listed as -15%. The “LYN B % Inhibition” value in [15] (10 µM compound, ATP Km app) is reported as 39%.

The values above are taken from publication PMC4854315, “Discovery of a novel allosteric inhibitor-binding site in ERK5: comparison with the canonical kinase hinge ATP-binding site” (Acta Crystallographica. Section D, Structural Biology, 2016).
